Source: US5583248A, “Amino acid derivatives having antiviral activity” (Hoffmann-La Roche Inc., priority 1991, dated 1996)
pIC50: −log10 of the molar value.

Columns and labels:
[1] = test system: HTLV-III (strain RF) grown in C8166 cells; test: in vitro antiviral activity (activity against HIV); format: cell-based; settings: Human immunodeficiency virus 1, C8166, 72 h, read-out: Activity against HIV I50
Description: This assay uses HTLV-III (strain RF) grown in C8166 cells (a human CD4^+ T lymphoblastoid line) using RPM1 1640 medium with bicarbonate buffer, antibiotics and 10% foetal bovine serum.
A suspension of cells is infected with ten times the TCID50 of virus and adsorption is allowed to proceed for 90 minutes at 37° C. The cells are washed three times with medium. The test is carried out in 6 ml tissue culture tubes containing 2×10^5 infected cells in 1.5 ml of medium. Test compounds are dissolved in either aqueous medium or dimethyl sulphoxide, according to solubility, and a […] solution of the test compound is added. The cultures are incubated at 37° C. for 72 hours in a humidified atmosphere containing 5% carbon dioxide in air. The cultures are then centrifuged and an aliquot of the supernatant is solubilized with Nonidet P40 and subjected to an antigen capture assay which uses a primary antiserum with particular reactivity against the viral p24 antigen and a horseradish peroxidase detection system. Colour generation is measured spectrophotometrically and is plotted against the concentration of test compound. The concentration which produces 50% protection is determined (I50).

HIV protease = biological target: T1, HIV protease (Human immunodeficiency virus type 1 group M subtype B, UniProt P04585); test: in vitro inhibition of HIV protease; format: biochemical; settings: substrate succinyl-Val-Ser-Gln-Asn-Phe-Pro-Ile isobutylamide; citrate buffer pH5.5; 37° C.; 50% inhibition; read-out: HIV protease inhibition I50
T1 construct: HIV protease was expressed in E. coli; made in house; host or cells: E. coli
Description: HIV protease was expressed in E. coli and partially purified from soluble extracts of the bacterium by ammonium sulphate fractionation (0-30%). Protease activity was assayed using the protected heptapeptide succinyl-Val-Ser-Gln-Asn-Phe-Pro-Ile isobutylamide as the substrate. Cleavage of the substrate was quantified by measuring the production of H-Pro-Ile isobutyl-amide by the spectrophotometric assay of N-terminal proline,
1.25 mM of substrate were dissolved in 125 mM of citrate buffer (pH5.5) containing 0.125 mg/ml of Tween 20. […] of a solution of various concentrations of the test compound (dissolved in methanol or dimethyl sulphoxide and diluted with water containing 0.1% Tween 20) and […] of protease were added to […] of the above buffered substrate. Digestion was carried out at 37° C. for a fixed period of time and was terminated by the addition of 1 ml of colour reagent [30 mg/ml of isatin and 1.5 mg/ml of 2-(4-chlorobenzoyl)benzoic acid in 10% acetone in ethanol (vol./vol.)]. The solution was heated in a water bath and then the pigmented residues were re-dissolved in 1 ml of 1% pyrogallol in 33% water in acetone (wt./vol./vol.), The optical density of the solution was measured spectrophotometrically at 599 nm, The formation of H-Pro-Ile isobutylamide in the presence of the test compound was compared with controls and the concentration of test compound required to give 50% inhibition (I50) was determined by means of a graph plotted from the various concentrations of test compound used.

Q: How did the pIC50 [1] turn out when `CC(C)(C)NC(=O)[C@@H]1CCCC[C@H]1C[C@@H](O)[C@H](Cc1ccccc1)NC(=O)[C@H](CC(N)=O)NC(=O)c1ccc2ccccc2n1` [Compound C, 2(S)-[3(S)-[[N-(2-quinolylcarbonyl)-L-asparaginyl]amino]-2(R)-hydroxy-4-phenylbutyl]-N-tert.butyl-1(R)-cyclohexanecarboxamide] was run?
A: The pIC50 was 8.40.

Q: How did the pIC50 (HIV protease) turn out when `COC(=O)C[C@H](NC(=O)OCc1ccccc1)C(=O)N[C@@H](Cc1ccccc1)[C@H](O)C[C@@H]1CCCC[C@H]1C(=O)NC(C)(C)C` [Compound E, 2(S)-[3(S)-[[N-(benzyloxycarbonyl)-O-methyl-L-aspartyl]amino]-2(R)-hydroxy-4-phenylbutyl]-N-tert.butyl-1(R)-cyclohexanecarboxamide] was run?
A: The pIC50 was 8.72.

Q: How did the pIC50 (HIV protease) turn out when `CC(C)(C)NC(=O)[C@@H]1CCCC[C@@H]1C[C@@H](O)[C@H](Cc1ccccc1)NC(=O)[C@H](CC(N)=O)NC(=O)OCc1ccccc1` [Compound B, 2(R)-[3(S)-[[N-(benzyloxycarbonyl)-L-asparaginyl]amino]-2(R)-hydroxy-4-phenylbutyl]-N-tert.butyl-1(R)-cyclohexanecarboxamide] was run?
A: The pIC50 was 7.24.

Q: What about the pIC50 [1] of the same compound?
A: Its pIC50 is 6.00.

Q: What does the source list for `CC(C)(C)NC(=O)[C@@H]1CCCC[C@H]1C[C@@H](O)[C@H](Cc1ccccc1)NC(=O)[C@H](CC(N)=O)NC(=O)OCc1ccccc1` [Compound A, 2(S)-[3(S)-[[N-(benzyloxycarbonyl)-L-asparaginyl]amino]-2(R)-hydroxy-4-phenylbutyl]-N-tert.butyl-1(R)-cyclohexanecarboxamide]?
A: pIC50 (HIV protease): 8.70; pIC50 [1]: 7.34

Q: How did the pIC50 (HIV protease) turn out when `CC(C)(C)NC(=O)[C@@H]1CCCC[C@H]1C[C@@H](O)[C@H](Cc1ccccc1)NC(=O)[C@H](CC#N)NC(=O)OCc1ccccc1` [Compound F, 2(S)-[3(S)-[[N-(benzyloxycarbonyl)-3-cyano-L-alanyl]amino]-2(R)-hydroxy-4-phenylbutyl]-N-tert.butyl-1(R)-cyclohexanecarboxamide] was run?
A: The pIC50 was 8.70.

Q: `CSC[C@H](NC(=O)OCc1ccccc1)C(=O)N[C@@H](Cc1ccccc1)[C@H](O)C[C@@H]1CCCC[C@H]1C(=O)NC(C)(C)C` [Compound D, 2(S)-[3(S)-[[N-(benzyloxycarbonyl)-S-methyl-L-cysteinyl]amino]-2(R)-hydroxy-4-phenylbutyl]-N-tert.butyl-1(R)-cyclohexanecarboxamide] was tested. Which pIC50 (HIV protease) did it give?
A: Its pIC50 is 8.89.
